Consider six compounds from ChEMBL document CHEMBL3407497, “Discovery of small molecule inhibitors to Krüppel-like factor 10 (KLF10): implications for modulation of T regulatory cell differentiation” (J Med Chem, 2015).

Broadly, the inhibition is the drop in the measured response relative to a control, in per cent. By IC50 is commonly meant the concentration needed to halve the response being measured. The term EC50 denotes the concentration giving half of the maximal effect.

The source made the active and inactive calls. No cut-off for these calls is given here.

Assay [1] deals with Krueppel-like factor 1 (Homo sapiens) (UniProt Q13351). As to the kind of experiment: Inhibition of KLF1 (unknown origin) binding to DNA at 40 uM incubated for 4 hrs followed by biotin-labeled probes addition and incubated for another 1 hr by electromobility gel shift assay. (In general: A gel shift assay detects complexes by their altered migration in electrophoresis.)
Assay [2] addresses T1, Krueppel-like factor 10 (Homo sapiens) (UniProt Q13118).
T1 sequence (whole entry): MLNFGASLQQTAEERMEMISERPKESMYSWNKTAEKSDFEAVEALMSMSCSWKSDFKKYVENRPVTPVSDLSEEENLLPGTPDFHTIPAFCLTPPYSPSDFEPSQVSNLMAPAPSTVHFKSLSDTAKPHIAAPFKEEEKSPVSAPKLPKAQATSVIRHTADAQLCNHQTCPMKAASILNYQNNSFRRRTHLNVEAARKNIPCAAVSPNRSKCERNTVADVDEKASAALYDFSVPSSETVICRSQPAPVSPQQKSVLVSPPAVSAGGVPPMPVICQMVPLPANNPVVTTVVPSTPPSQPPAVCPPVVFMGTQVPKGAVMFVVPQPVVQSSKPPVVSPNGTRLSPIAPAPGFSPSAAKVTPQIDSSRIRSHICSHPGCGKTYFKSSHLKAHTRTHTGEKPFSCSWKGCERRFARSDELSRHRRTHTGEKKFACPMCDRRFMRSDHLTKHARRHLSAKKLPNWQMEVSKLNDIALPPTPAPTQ
Kind of assay: Inhibition of KLF10 (unknown origin) binding to DNA at 40 uM incubated for 4 hrs followed by biotin-labeled probes addition and incubated for another 1 hr by electromobility gel shift assay.

Assay [3] deals with T1, Krueppel-like factor 10 (Homo sapiens). As to the kind of experiment: Inhibition of KLF10 (unknown origin) binding to DNA at 8 uM incubated for 4 hrs followed by biotin-labeled probes addition and incubated for another 1 hr by electromobility gel shift assay.
In assay [4] the target is Krueppel-like factor 1 (Homo sapiens) (UniProt Q13351). Kind of assay: Inhibition of KLF1 (unknown origin) binding to DNA at 8 uM incubated for 4 hrs followed by biotin-labeled probes addition and incubated for another 1 hr by electromobility gel shift assay.
Assay [5] relates to T-cell. As to the kind of experiment: Inhibition of Foxp3 gene expression in mouse T regulatory cells at 50 uM measured during TGFbeta1-induced conversion of CD4(+) and CD25(-) cells to CD4(+) and CD25(+) cells incubated for 3 days by real-time quantitative PCR method. The assay is classed as functional. Particulars: 72 h.
The test system of assay [6] is T-cell. As to the kind of experiment: Inhibition of mouse T regulatory cell differentiation assessed as inhibition of TGFbeta1-induced conversion of CD4(+) and CD25(-) cells to CD4(+) and CD25(+) cells incubated for 3 days by flow cytometry. The assay is classed as functional. For orientation: A flow cytometer gives signals particle by particle.
Another assay has as its target T2, Krueppel-like factor 10 (Homo sapiens, UniProt Q13118).
T2 sequence (Q13118 whole entry): T1 sequence (whole entry)
Kind of assay: Inhibition of human KLF10 expressed in human HeLa cells assessed as reduction in transcriptional activity after 24 hrs by CACCC-responsive promoter driven TK-luciferase reporter gene assay. The class given is cell-based. (Reporter assays use an easily measured gene product as a stand-in for the process of interest.)

Assay [7] is described as follows: Inhibition of zinc finger protein C7 (unknown origin) assessed as reduction in transcriptional activity by luciferase reporter gene assay relative to untreated control. More on the design: species or system Homo sapiens.
The subject of another assay is HEK293. As to the kind of experiment: Inhibition of GLI (unknown origin) expressed in HEK293 cells assessed as reduction in GLI-mediated transcription at 30 uM. Particulars: Homo sapiens. The class given is cell-based.

Sequence of Krueppel-like factor 1 (Homo sapiens) (Q13351 whole entry): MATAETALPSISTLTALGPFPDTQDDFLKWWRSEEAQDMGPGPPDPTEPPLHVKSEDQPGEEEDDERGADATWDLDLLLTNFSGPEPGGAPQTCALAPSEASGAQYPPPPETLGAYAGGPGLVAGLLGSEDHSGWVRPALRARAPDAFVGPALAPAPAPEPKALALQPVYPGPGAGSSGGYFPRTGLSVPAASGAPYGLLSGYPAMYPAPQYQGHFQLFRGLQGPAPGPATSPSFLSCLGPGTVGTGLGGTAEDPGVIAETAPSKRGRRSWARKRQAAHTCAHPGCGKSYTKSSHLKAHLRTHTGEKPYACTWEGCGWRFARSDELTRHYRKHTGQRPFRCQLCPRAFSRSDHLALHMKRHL

Consider `Cc1ccc(OCC(=O)c2cc(C)c(O)cc2O)cc1`, for which the inhibition result in assay [1] and in assay [4] was “inactive” throughout. The inhibition was determined as 25% in assay [2] and 11% in assay [3]. For the same compound, the inhibition at 50 µM with T-cell [5] came out at 84.7%.
For `COc1ccc(C(=O)COC(=O)c2cc(C)ccc2O)cc1`, the inhibition entry in [1] and in assay [4] was “inactive” throughout. In the assay on T-cell [6], the “inhibition (INH)” value is 59.1%. For the same compound, the inhibition in assay [2] was 45%; in assay [3], 12%. In addition, the IC50 on Krueppel-like factor 10 amounted to 40 µM. Further, in the assay on T-cell [5], the inhibition at 50 µM was 82.5%.
With `c1ccc2[nH]c(-c3ccnc4ccccc34)nc2c1`, the EC50 in [7] worked out at 35 µM.
In the case of `CN(C)c1ccccc1CN1CCCN(Cc2ccccc2N(C)C)C1c1ccncc1`, the inhibition entry in the assay with HEK293 was “Active”.
Consider `Cc1sc2nc(SCC(=O)c3ccc(O)c(O)c3)[nH]c(=O)c2c1C`, for which the “inhibition (INH)” value with T-cell [6] is on record as 29.2%. Also, in assay [3], the inhibition turned out to be 25%. Further, in the assay on T-cell [5], at 50 µM the inhibition was 90.8%.
Take `c1cc(-c2sc(-c3ccncc3)c(-c3ccncc3)c2-c2ccncc2)ccn1`: the inhibition result with HEK293 is “Active”.
